Assay results as given in ChEMBL document CHEMBL2401630, “A thienopyrimidine derivative induces growth inhibition and apoptosis in human cancer cell lines via inhibiting Aurora B kinase activity” (Eur J Med Chem, 2013).
Activity calls are given as the source filed them. The rule behind the calls is not given here.

What was measured:
[1] = tested on: HepG2; experiment: Cytotoxicity against human HepG2 cells after 72 hrs by CCK-8 assay; format: functional, cell-based; details: HepG2, 72 h
[2] = target: T1, Aurora kinase B (Homo sapiens, UniProt Q96GD4); experiment: Inhibition of Aurora B kinase phosphorylation in human SW620 cells after 48 hrs by Western blotting analysis; format: cell-based; details: SW-620
[3] = tested on: PC-3; experiment: Cytotoxicity against human PC3 cells after 72 hrs by CCK-8 assay; format: functional, cell-based; details: PC-3, 72 h
[4] = target: Aurora kinase A (Homo sapiens) (UniProt O14965); experiment: Inhibition of Aurora A kinase (unknown origin) at 10 uM by Z'-LYTE kinase assay
[5] = target: T1, Aurora kinase B; experiment: Competitive inhibition of recombinant Aurora B kinase (unknown origin) expressed in Escherichia coli by Z'-LYTE kinase assay in presence of ATP
[6] = target: RAF proto-oncogene serine/threonine-protein kinase (Homo sapiens) (UniProt P04049); experiment: Inhibition of c-Raf (unknown origin) at 10 uM by Z'-LYTE kinase assay
[7] = target: T1, Aurora kinase B; experiment: Inhibition of recombinant Aurora B kinase (unknown origin) expressed in Escherichia coli
[8] = tested on: SW-620; experiment: Growth inhibition in human SW620 cells at 5 to 10 uM after 96 hrs by CCK-8 assay relative to control; format: functional, cell-based
[9] = target: High affinity nerve growth factor receptor (Homo sapiens) (UniProt P04629); experiment: Inhibition of TRKA (unknown origin) at 10 uM by Z'-LYTE kinase assay
[10] = tested on: SW-620; experiment: Cytotoxicity against human SW620 cells at 20 uM incubated for 96 hrs measured after 10 days by colony formation assay relative to control; format: functional
[11] = target: 5'-AMP-activated protein kinase catalytic subunit alpha-2 (Homo sapiens) (UniProt P54646); experiment: Inhibition of AMPK (unknown origin) at 10 uM by Z'-LYTE kinase assay
[12] = target: Proto-oncogene tyrosine-protein kinase receptor Ret (Homo sapiens) (UniProt P07949); experiment: Inhibition of RET (unknown origin) at 10 uM by Z'-LYTE kinase assay
[13] = tested on: SW-620; experiment: Growth inhibition in human SW620 cells assessed as cell death at 10 uM incubated for 96 hrs measured after 8 days by CCK-8 assay; format: functional, cell-based
[14] = Cytotoxicity against human PANC cells after 72 hrs by CCK-8 assay; format: functional, cell-based
[15] = tested on: HeLa; experiment: Cytotoxicity against human HeLa cells after 72 hrs by CCK-8 assay; format: functional, cell-based
[16] = target: Glycogen synthase kinase-3 beta (Homo sapiens) (UniProt P49841); experiment: Inhibition of GSK3 beta (unknown origin) at 10 uM by Z'-LYTE kinase assay
[17] = target: Vascular endothelial growth factor receptor 2 (Homo sapiens) (UniProt P35968); experiment: Inhibition of VEGFR2 (unknown origin) at 10 uM by Z'-LYTE kinase assay
[18] = target: Serine/threonine-protein kinase PLK1 (Homo sapiens) (UniProt P53350); experiment: Inhibition of PLK1 (unknown origin) at 10 uM by Z'-LYTE kinase assay
[19] = target: T1, Aurora kinase B; experiment: Inhibition of Aurora B kinase in human HeLa cells assessed as inhibition of Histone H3 phosphorylation after 48 hrs by Western blotting analysis; format: cell-based
[20] = tested on: SW-620; experiment: Induction of apoptosis in human SW620 cells assessed as late apoptotic cells at 10 uM after 48 hrs by Annexin-V staining-based flow cytometry (reference value: 4.52 %); format: functional
[21] = target: T1, Aurora kinase B; experiment: Inhibition of Aurora B kinase in human HepG2 cells assessed as inhibition of Histone H3 phosphorylation after 48 hrs by Western blotting analysis; format: cell-based
[22] = target: Epidermal growth factor receptor (Homo sapiens) (UniProt P00533); experiment: Inhibition of EGFR (unknown origin) at 10 uM by Z'-LYTE kinase assay
[23] = target: T1, Aurora kinase B; experiment: Inhibition of Aurora B kinase (unknown origin) at 10 uM by Z'-LYTE kinase assay
[24] = tested on: SW-620; experiment: Induction of apoptosis in human SW620 cells assessed as late apoptotic cells at 5 uM after 48 hrs by Annexin-V staining-based flow cytometry (reference value: 4.52 %); format: functional
[25] = target: CDK2/Cyclin A2 (Homo sapiens) (UniProt P24941+P20248); experiment: Inhibition of CDK2/CycA (unknown origin) at 10 uM by Z'-LYTE kinase assay; format: protein-complex assay
[26] = tested on: HGC-27; experiment: Cytotoxicity against human HGC27 cells after 72 hrs by CCK-8 assay; format: functional, cell-based; details: HGC-27, 72 h
[27] = target: Tyrosine-protein kinase receptor UFO (Homo sapiens) (UniProt P30530); experiment: Inhibition of AXL (unknown origin) at 10 uM by Z'-LYTE kinase assay
[28] = target: T1, Aurora kinase B; experiment: Inhibition of Aurora B kinase phosphorylation in human HepG2 cells after 48 hrs by Western blotting analysis; format: cell-based
[29] = target: T1, Aurora kinase B; experiment: Inhibition of Aurora B kinase in human HeLa cells assessed as inhibition of Histone H3 phosphorylation after 48 hrs by immuno-fluorescence analysis relative to control; format: cell-based
[30] = tested on: MDA-MB-231; experiment: Cytotoxicity against human MDA-MB-231 cells after 72 hrs by CCK-8 assay; format: functional, cell-based; details: MDA-MB-231, 72 h
[31] = tested on: HCT-116; experiment: Cytotoxicity against human HCT116 cells after 72 hrs by CCK-8 assay; format: functional, cell-based; details: HCT-116, 72 h
[32] = tested on: CNE; experiment: Cytotoxicity against human CNE cells after 72 hrs by CCK-8 assay; format: functional, cell-based
[33] = target: T1, Aurora kinase B; experiment: Inhibition of Aurora B kinase phosphorylation in human HeLa cells after 48 hrs by Western blotting analysis; format: cell-based
[34] = tested on: SW-620; experiment: Induction of apoptosis in human SW620 cells assessed as late apoptotic cells at 20 uM after 48 hrs by Annexin-V staining-based flow cytometry (reference value: 4.52 %); format: functional
[35] = target: T1, Aurora kinase B; experiment: Inhibition of Aurora B kinase in human SW620 cells assessed as inhibition of Histone H3 phosphorylation after 48 hrs by Western blotting analysis; format: cell-based; details: SW-620
[36] = tested on: SW-620; experiment: Cytotoxicity against human SW620 cells after 72 hrs by CCK-8 assay; format: functional, cell-based; details: SW-620, 72 h
[37] = tested on: SW-620; experiment: Growth inhibition in human SW620 cells at 5 to 10 uM incubated for 96 hrs followed by compound washout measured after 48 hrs by CCK-8 assay; format: functional, cell-based
[38] = Cytotoxicity against human Hep3B cells after 72 hrs by CCK-8 assay; format: functional, cell-based, Hep 3B2
[39] = tested on: SW-620; experiment: Induction of apoptosis in human SW620 cells assessed as late apoptotic cells after 48 hrs by Annexin-V staining-based flow cytometry; format: functional, cell-based
[40] = tested on: A549; experiment: Cytotoxicity against human A549 cells after 72 hrs by CCK-8 assay; format: functional, cell-based; details: A549, 72 h
[41] = tested on: SK-OV-3; experiment: Cytotoxicity against human SKOV3 cells after 72 hrs by CCK-8 assay; format: functional, cell-based; details: SK-OV-3, 72 h
[42] = tested on: SK-HEP1; experiment: Cytotoxicity against human SKHEP1 cells after 72 hrs by CCK-8 assay; format: functional, cell-based; details: SK-HEP1, 72 h
[43] = target: Platelet-derived growth factor receptor beta (Homo sapiens) (UniProt P09619); experiment: Inhibition of PDGFR beta (unknown origin) at 10 uM by Z'-LYTE kinase assay
[44] = tested on: A-375; experiment: Cytotoxicity against human A375 cells after 72 hrs by CCK-8 assay; format: functional, cell-based; details: A-375, 72 h
[45] = tested on: MCF7; experiment: Cytotoxicity against human MCF7 cells after 72 hrs by CCK-8 assay; format: functional, cell-based; details: MCF7, 72 h
[46] = species: Homo sapiens; experiment: Inhibition of PKA (unknown origin) at 10 uM by Z'-LYTE kinase assay
[47] = target: RAC-alpha serine/threonine-protein kinase (Homo sapiens) (UniProt P31749); experiment: Inhibition of AKT1 (unknown origin) at 10 uM by Z'-LYTE kinase assay
[48] = tested on: SW-620; experiment: Cytotoxicity against human SW620 cells at 10 uM incubated for 96 hrs measured after 10 days by colony formation assay relative to control; format: functional

T1 sequence (Q96GD4 whole entry): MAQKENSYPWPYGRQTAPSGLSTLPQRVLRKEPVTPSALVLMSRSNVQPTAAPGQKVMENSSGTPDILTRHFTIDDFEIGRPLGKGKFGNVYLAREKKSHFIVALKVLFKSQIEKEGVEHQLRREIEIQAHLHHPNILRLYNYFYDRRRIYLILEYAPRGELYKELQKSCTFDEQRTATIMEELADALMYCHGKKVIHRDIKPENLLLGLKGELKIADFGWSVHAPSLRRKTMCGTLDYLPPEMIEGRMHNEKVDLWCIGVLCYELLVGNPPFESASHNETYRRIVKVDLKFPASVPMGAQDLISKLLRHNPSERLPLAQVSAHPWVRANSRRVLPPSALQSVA
5'-AMP-activated protein kinase catalytic subunit alpha-2 (Homo sapiens), sequence (P54646 whole entry, looked up): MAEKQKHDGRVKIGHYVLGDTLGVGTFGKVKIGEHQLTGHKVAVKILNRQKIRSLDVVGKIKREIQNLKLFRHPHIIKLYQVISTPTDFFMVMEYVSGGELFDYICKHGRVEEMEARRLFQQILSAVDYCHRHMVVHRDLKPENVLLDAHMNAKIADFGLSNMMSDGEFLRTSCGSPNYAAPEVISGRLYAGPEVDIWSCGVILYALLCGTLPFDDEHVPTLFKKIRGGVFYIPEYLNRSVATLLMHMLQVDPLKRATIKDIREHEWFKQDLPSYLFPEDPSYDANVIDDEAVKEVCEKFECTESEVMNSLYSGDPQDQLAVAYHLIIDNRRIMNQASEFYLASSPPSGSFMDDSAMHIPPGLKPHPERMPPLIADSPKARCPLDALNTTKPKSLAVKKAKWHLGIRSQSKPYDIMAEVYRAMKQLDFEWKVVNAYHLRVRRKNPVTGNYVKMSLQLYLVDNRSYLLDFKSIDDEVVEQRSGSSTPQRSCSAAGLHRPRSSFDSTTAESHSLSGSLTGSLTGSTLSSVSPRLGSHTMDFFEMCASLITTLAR
Vascular endothelial growth factor receptor 2 (Homo sapiens), sequence (P35968 whole entry): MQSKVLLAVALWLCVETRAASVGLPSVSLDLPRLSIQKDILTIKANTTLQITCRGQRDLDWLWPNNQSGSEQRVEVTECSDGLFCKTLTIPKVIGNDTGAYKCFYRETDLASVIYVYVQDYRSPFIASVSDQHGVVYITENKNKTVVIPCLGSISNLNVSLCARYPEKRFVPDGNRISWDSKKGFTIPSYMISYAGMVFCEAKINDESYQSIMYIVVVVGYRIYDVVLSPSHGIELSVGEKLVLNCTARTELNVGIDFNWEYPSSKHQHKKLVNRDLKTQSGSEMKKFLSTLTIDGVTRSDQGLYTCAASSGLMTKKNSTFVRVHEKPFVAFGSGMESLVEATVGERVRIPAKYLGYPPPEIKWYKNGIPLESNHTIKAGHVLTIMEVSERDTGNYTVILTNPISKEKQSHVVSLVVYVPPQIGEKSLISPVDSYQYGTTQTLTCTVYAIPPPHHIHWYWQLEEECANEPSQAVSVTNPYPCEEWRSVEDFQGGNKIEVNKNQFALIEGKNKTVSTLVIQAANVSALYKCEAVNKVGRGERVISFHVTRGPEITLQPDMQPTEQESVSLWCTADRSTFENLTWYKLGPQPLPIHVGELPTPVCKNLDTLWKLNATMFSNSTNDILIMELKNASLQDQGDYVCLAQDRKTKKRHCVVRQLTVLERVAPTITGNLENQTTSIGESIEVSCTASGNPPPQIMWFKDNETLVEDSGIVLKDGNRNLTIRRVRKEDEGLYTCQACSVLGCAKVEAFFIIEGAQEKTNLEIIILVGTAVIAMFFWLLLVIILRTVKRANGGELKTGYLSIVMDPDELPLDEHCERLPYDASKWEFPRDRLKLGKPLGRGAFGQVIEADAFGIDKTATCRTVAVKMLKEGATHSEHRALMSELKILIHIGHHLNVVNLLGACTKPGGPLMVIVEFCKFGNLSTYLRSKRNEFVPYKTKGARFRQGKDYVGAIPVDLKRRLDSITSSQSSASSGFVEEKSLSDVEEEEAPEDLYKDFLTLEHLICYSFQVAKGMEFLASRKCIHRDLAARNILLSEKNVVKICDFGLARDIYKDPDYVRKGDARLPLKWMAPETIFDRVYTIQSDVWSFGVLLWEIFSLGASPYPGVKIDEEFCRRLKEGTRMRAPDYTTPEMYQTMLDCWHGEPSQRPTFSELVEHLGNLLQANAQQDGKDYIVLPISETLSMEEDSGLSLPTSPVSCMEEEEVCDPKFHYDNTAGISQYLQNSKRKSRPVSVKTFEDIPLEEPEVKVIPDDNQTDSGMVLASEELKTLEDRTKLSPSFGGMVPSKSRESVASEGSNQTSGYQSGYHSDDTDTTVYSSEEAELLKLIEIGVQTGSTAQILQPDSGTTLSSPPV
Aurora kinase A (Homo sapiens), sequence (O14965 whole entry): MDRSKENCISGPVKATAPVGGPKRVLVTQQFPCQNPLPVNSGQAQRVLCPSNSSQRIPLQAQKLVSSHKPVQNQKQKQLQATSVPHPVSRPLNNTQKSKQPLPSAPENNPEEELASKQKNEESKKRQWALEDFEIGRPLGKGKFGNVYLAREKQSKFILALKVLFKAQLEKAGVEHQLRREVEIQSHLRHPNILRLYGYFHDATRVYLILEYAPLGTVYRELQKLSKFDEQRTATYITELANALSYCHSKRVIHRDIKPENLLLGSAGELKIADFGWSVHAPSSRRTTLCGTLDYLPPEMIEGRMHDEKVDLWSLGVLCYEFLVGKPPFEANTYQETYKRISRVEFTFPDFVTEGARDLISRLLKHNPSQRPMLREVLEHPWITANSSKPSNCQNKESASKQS
Epidermal growth factor receptor (Homo sapiens), sequence (P00533 whole entry): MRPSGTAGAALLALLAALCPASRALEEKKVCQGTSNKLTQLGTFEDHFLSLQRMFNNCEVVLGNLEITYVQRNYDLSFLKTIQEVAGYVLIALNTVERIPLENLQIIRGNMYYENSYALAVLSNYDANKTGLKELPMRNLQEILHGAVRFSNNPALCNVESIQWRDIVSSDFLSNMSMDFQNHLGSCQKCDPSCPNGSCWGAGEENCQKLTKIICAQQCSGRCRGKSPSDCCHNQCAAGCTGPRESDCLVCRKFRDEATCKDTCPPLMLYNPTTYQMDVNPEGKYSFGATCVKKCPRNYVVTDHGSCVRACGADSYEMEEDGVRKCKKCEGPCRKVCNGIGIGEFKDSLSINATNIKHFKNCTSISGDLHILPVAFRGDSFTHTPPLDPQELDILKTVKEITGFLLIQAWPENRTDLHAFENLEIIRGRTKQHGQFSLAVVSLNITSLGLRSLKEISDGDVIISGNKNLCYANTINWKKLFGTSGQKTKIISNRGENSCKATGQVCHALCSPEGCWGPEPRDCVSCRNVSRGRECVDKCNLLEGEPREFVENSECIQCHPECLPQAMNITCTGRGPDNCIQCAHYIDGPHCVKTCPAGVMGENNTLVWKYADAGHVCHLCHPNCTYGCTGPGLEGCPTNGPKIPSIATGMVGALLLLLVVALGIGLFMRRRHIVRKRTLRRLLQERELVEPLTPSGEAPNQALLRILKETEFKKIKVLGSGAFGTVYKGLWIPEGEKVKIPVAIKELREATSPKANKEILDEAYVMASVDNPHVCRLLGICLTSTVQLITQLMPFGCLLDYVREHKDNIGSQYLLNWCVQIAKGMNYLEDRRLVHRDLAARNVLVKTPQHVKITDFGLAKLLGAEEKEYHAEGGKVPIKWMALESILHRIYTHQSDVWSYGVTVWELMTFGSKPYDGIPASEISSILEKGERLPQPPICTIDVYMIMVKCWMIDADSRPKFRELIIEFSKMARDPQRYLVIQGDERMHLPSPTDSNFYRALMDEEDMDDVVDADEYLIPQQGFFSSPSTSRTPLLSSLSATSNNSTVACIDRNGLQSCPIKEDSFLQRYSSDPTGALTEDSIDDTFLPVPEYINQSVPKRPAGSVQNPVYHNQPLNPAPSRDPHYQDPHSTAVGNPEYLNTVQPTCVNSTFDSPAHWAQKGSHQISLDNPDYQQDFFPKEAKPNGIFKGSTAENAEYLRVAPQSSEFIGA
Tyrosine-protein kinase receptor UFO (Homo sapiens), sequence (P30530 whole entry): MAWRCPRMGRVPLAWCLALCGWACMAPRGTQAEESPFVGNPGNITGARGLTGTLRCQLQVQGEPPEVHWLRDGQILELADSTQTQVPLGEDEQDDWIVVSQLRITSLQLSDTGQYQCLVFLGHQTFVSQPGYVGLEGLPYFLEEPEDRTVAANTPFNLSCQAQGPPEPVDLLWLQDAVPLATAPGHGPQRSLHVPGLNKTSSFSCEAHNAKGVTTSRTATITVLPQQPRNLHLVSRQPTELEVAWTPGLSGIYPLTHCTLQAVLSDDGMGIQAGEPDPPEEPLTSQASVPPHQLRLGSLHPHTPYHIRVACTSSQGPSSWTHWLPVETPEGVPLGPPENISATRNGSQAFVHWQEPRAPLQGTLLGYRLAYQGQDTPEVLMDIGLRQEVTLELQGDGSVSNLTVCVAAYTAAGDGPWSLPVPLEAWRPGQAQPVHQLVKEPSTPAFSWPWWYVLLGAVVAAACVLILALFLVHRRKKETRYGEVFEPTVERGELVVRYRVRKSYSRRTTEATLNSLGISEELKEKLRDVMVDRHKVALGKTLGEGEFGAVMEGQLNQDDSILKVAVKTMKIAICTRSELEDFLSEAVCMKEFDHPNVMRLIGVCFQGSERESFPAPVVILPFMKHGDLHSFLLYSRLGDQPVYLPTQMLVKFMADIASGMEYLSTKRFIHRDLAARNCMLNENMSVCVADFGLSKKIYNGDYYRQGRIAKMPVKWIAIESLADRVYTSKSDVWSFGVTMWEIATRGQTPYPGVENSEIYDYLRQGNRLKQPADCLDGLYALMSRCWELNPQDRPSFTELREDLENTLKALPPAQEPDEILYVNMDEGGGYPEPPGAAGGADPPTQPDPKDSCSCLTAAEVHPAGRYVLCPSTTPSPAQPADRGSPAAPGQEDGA

SMILES: c1ccc(-c2csc3ncnc(N4CCc5ccccc5C4)c23)cc1
- IC50 [1]: 23.4 µM
- inhibition [2]: Dose-dependent effect
- IC50 [3]: 13.2 µM
- inhibition [4]: 65.3%
- inhibition [5]: Active
- inhibition [6]: 1.42%
- IC50 [7]: 0.141 µM
- growth inhibition (GI) [8]: Active
- inhibition [9]: 4.18%
- Activity [10]: 13.2%
- inhibition [11]: 3.37%
- inhibition [12]: 1.86%
- growth inhibition (GI) [13]: Active
- IC50 [14]: 42.3 µM
- IC50 [15]: 20.8 µM
- inhibition [16]: 13%
- inhibition [17]: 3.02%
- inhibition [18]: 6.5%
- inhibition [19]: Active
- Activity [20]: 24.09%
- inhibition [21]: Active
- inhibition [22]: 1.69%
- inhibition [23]: 74.4%
- Activity [24]: 9.34%
- inhibition [25]: 27.7%
- IC50 [26]: 17.4 µM
- inhibition [27]: 2.58%
- inhibition [28]: Dose-dependent effect
- inhibition [29]: Active
- IC50 [30]: > 100 µM
- IC50 [31]: > 100 µM
- IC50 [32]: > 100 µM
- inhibition [33]: Dose-dependent effect
- Activity [34]: 35.39%
- inhibition [35]: Active
- IC50 [36]: 6.25 µM
- growth inhibition (GI) [37]: inactive
- IC50 [38]: > 100 µM
- Activity [39]: Dose-dependent effect
- IC50 [40]: > 100 µM
- IC50 [41]: 20.6 µM
- IC50 [42]: > 100 µM
- inhibition [43]: 9.63%
- IC50 [44]: 15.2 µM
- IC50 [45]: 27 µM
- inhibition [46]: 1.77%
- inhibition [47]: 5.32%
- Activity [48]: 33.6%
